# From US7183276B2, “Azole compounds” (Takeda Pharmaceutical Company Limited, priority 2002, dated 2007)
# Test system: diabetic neuropathy model (streptozotocin-injected rats)
# Experiment: Motor nerve conduction velocity in STZ diabetic neuropathy model rats
# Assay type: in vivo
# Settings: male SD rats, STZ 70 mg/kg diabetic neuropathy model; 3 mg/kg orally in 0.5% methyl cellulose; average value ± SD (n = 7–8)
# Procedure: (§1) To 6-week-old male SD rats (CLEA Japan, Inc.) was injected 70 mg/kg body weight of streptozotocin (STZ) from the tail vein to form a diabetic neuropathy model.
# (§2) After raising for one month, 3 mg/kg of compound (compound of Example 5 or Example 226) suspended in 0.5% methyl cellulose was orally administered to the rats. For the control group, a 0.5% aqueous methyl cellulose suspension free of the aforementioned compound was administered.
# After the completion of the administration, the rats were anesthetized with Nembutal, the body temperature was maintained at a constant level using a hot plate at 37° C. and a desk lamp, needle electrodes were placed on the above-knee region and ankle, stimulated using Neuropack 2 (NIHON KOHDEN CORPORATION) principally at 1.6 mA and the evoked potential was detected from the plantar part. The Motor Nerve Conduction Velocity (MNCV) was calculated from the distance between different electrodes and latency difference of waveforms.
row,SMILES,MNCV (Motor Nerve Conduction Velocity)
1,"CCOP(=O)(Cc1ccc(NC(=O)CCCc2oc(-n3cnc4ccccc43)nc2-c2ccc(Cl)cc2)cc1)OCC [Example 226, 4-[2-(1H-benzimidazol-1-yl)-4-(4-chlorophenyl)-5-oxazolyl]-N-[(4-diethylphosphonomethyl)phenyl]butanamide]",52.3 ± 2.4 m/s
2,"CCOP(=O)(Cc1ccc(NC(=O)CCc2oc(-n3cnc4ccccc43)nc2-c2ccc(Cl)cc2)cc1)OCC [Example 5, 3-[2-(1H-benzimidazol-1-yl)-4-(4-chlorophenyl)-5-oxazolyl]-N-[4-(diethylphosphonomethyl)phenyl]propionamide]",52.7 ± 5.0 m/s

# Test system: BDNF
# Experiment: BDNF content of ischiadic nerve of STZ diabetic neuropathy model rats (sandwich ELISA)
# Assay type: in vivo
# Settings: male SD rats, STZ 70 mg/kg diabetic neuropathy model, 3 mg/kg orally in 0.5% methyl cellulose, ischiadic nerve supernatant, average value ± SD (n = 7–8)
# Procedure: as §1, §2
# After the evaluation of the nerve conduction velocity, the ischiadic nerve was taken from the rat, a lysis buffer (0.1M Tris-HCl buffer containing 1M sodium chloride, 2% BSA, 2 mM EDTA, 80 trypsin unit/L of aprotinin, pH 7.6) in a 20-fold amount of the wet weight of ischiadic nerve was added and the mixture was subjected to ultrasonication and centrifugal separation (15,000 rpm, 60 min.), and the BDNF content of the supernatant was measured.
# The BDNF content was measured by sandwich ELISA Method using anti-BDNF polyclonal antibody (Promega) and biotinated anti-BDNF antibody (G1641, Promega). The results are shown in [Table 20].
row,SMILES,BDNF (content of ischiadic nerve)
1,"CCOP(=O)(Cc1ccc(NC(=O)CCCc2oc(-n3cnc4ccccc43)nc2-c2ccc(Cl)cc2)cc1)OCC [Example 226, 4-[2-(1H-benzimidazol-1-yl)-4-(4-chlorophenyl)-5-oxazolyl]-N-[(4-diethylphosphonomethyl)phenyl]butanamide]",3.6 ± 0.4 ng/g
2,"CCOP(=O)(Cc1ccc(NC(=O)CCc2oc(-n3cnc4ccccc43)nc2-c2ccc(Cl)cc2)cc1)OCC [Example 5, 3-[2-(1H-benzimidazol-1-yl)-4-(4-chlorophenyl)-5-oxazolyl]-N-[4-(diethylphosphonomethyl)phenyl]propionamide]",2.6 ± 0.7 ng/g

# Test system: not given
# Experiment: not given
# Settings: not given
row,melting point,SMILES
1,247 to 248 °C,"O=C(O)Cc1ccc(NC(=O)CCc2oc(-n3cnc4ccccc43)nc2-c2ccc(Cl)cc2)cc1 [Example 90, 4-({3-[2-(1H-benzimidazol-1-yl)-4-(4-chlorophenyl)-5-oxazolyl]propanoyl)amino}phenylacetic acid]"
2,157 to 158 °C,"O=C(CCc1oc(-n2cnc3ccccc32)nc1-c1ccc(Cl)cc1)NCc1ccccn1 [Example 154, 3-[2-(1H-benzimidazol-1-yl)-4-(4-chlorophenyl)-5-oxazolyl]-N-(2-pyridinylmethyl)propionamide]"
3,219 to 220 °C,"CC(C)(C)c1ccc(NC(=O)CCc2oc(-n3cnc4ccccc43)nc2-c2ccc(Cl)cc2)cc1 [Example 117, 3-[2-(1H-benzimidazol-1-yl)-4-(4-chlorophenyl)-5-oxazolyl]-N-(4-tert-butylphenyl)propionamide]"
4,146 to 147 °C,CCOP(=O)(Cc1ccc(NC(=O)CCc2oc(Sc3ncccn3)nc2-c2ccc(Cl)cc2)cc1)OCC
5,142 to 143 °C,CCOP(=O)(Cc1ccc(NC(=O)CCc2sc(-n3cnc4ccccc43)nc2-c2ccccc2)cc1)OCC
6,259 to 263 °C,"O=C(CCc1oc(-n2cnc3ccccc32)nc1-c1ccc(Cl)cc1)Nc1ccc(C(F)(F)F)cc1 [Example 121, 3-[2-(1H-benzimidazol-1-yl)-4-(4-chlorophenyl)-5-oxazolyl]-N-[4-(trifluoromethyl)phenyl]propionamide]"
7,206 to 207 °C,"O=C(CCc1oc(-n2cnc3ccccc32)nc1-c1ccc(Cl)cc1)NCc1ccc(F)c(Br)c1 [Example 170, 3-[2-(1H-benzimidazol-1-yl)-4-(4-chlorophenyl)-5-oxazolyl]-N-(3-bromo-4-fluorobenzyl)propionamide]"
8,210 to 212 °C,"COc1ccc(CNC(=O)CCc2oc(-n3cnc4ccccc43)nc2-c2ccc(Cl)cc2)cc1 [Example 145, 3-[2-(1H-benzimidazol-1-yl)-4-(4-chlorophenyl)-5-oxazolyl]-N-(4-methoxybenzyl)propionamide]"
9,164 to 165 °C,CCOP(=O)(Cc1ccc(NC(=O)CCc2sc(-c3ccccc3)nc2-c2ccc(Cl)cc2)cc1)OCC
10,198 to 200 °C,"COc1cc(CNC(=O)CCc2oc(-n3cnc4ccccc43)nc2-c2ccc(Cl)cc2)cc(OC)c1 [Example 180, 3-[2-(1H-benzimidazol-1-yl)-4-(4-chlorophenyl)-5-oxazolyl]-N-(3,5-dimethoxybenzyl)propionamide]"
11,276 to 277 °C,"CSc1ccc(NC(=O)CCc2oc(-n3cnc4ccccc43)nc2-c2ccc(Cl)cc2)cc1 [Example 96, 3-[2-(1H-benzimidazol-1-yl)-4-(4-chlorophenyl)-5-oxazolyl]-N-{4-(methylsulfanyl)phenyl}propionamide]"
12,127 to 128 °C,CCOP(=O)(Cc1ccc(NC(=O)CCCc2oc(N3CCCC3)nc2-c2ccc(Cl)cc2)cc1)OCC
13,133 to 134 °C,"CN1CCC(N(C)C(=O)CCc2oc(-n3cnc4ccccc43)nc2-c2ccc(Cl)cc2)CC1 [Example 193, 3-[2-(1H-benzimidazol-1-yl)-4-(4-chlorophenyl)-5-oxazolyl]-N-methyl-N-(1-methyl-4-piperidinyl)propionamide]"
14,235 to 236 °C,"N#CCc1ccccc1NC(=O)CCc1oc(-n2cnc3ccccc32)nc1-c1ccc(Cl)cc1 [Example 111, 3-[2-(1H-benzimidazol-1-yl)-4-(4-chlorophenyl)-5-oxazolyl]-N-[2-(cyanomethyl)phenyl]propionamide]"
15,204 to 205 °C,"O=C(CCc1oc(-c2ccccc2)nc1-c1ccc(Cl)cc1)Nc1cccnc1 [Example 41, 3-[4-(4-chlorophenyl)-2-phenyl-5-oxazolyl]-N-(3-pyridinyl)propionamide]"
16,240 to 241 °C,"NC(=O)/C=C/c1oc(-c2ccccc2)nc1-c1ccc(Cl)cc1 [Example 55, (2E)-3-[4-(4-chlorophenyl)-2-phenyl-5-oxazolyl]propenamide]"
17,193 to 194 °C,"COc1ccc(OC)c(CNC(=O)CCc2oc(-n3cnc4ccccc43)nc2-c2ccc(Cl)cc2)c1 [Example 179, 3-[2-(1H-benzimidazol-1-yl)-4-(4-chlorophenyl)-5-oxazolyl]-N-(2,5-dimethoxybenzyl)propionamide]"
18,205 to 209 °C,CCOP(=O)(Cc1ccc(NC(=O)CCCc2oc(N3CCN(n4c(=O)[nH]c5ccccc54)CC3)nc2-c2ccc(Cl)cc2)cc1)OCC
19,206 to 207 °C,CCOP(=O)(Cc1ccc(NC(=O)CCc2sc(NC(=O)NC)nc2-c2ccc(Cl)cc2)cc1)OCC
20,216 to 217 °C,"N#Cc1ccc(NC(=O)CCc2oc(-n3cnc4ccccc43)nc2-c2ccc(Cl)cc2)cc1 [Example 112, 3-[2-(1H-benzimidazol-1-yl)-4-(4-chlorophenyl)-5-oxazolyl]-N-(4-cyanophenyl)propionamide]"

row,SMILES,melting point
1,"CCOP(=O)(Cc1ccc(NC(=O)CCc2oc(-n3cnc4ccccc43)nc2-c2ccc(Cl)cc2)cc1)OCC [Example 5, 3-[2-(1H-benzimidazol-1-yl)-4-(4-chlorophenyl)-5-oxazolyl]-N-[4-(diethylphosphonomethyl)phenyl]propionamide]",159 to 160 °C
